The text below walks through data of patent US20080255206A1, “Rxr Agonists and Antagonists, Alone or in Combination with Ppar Ligands, in the Treatment of Metabolic and Cardiovascular Diseases” (priority 2005, published 2008).

The test system of data set [1] is skin inflammation induced by Candidin or UV-B. Put plainly: Clinical phase I trial, skin inflammation induced by candidin or UV-B irradiation. Format: in vivo, human. Here is the method: Four healthy volunteers participate. Inclusion criteria are: Age above 18 years, male or female. They are informed, with written letter of consent. Exclusion criteria are: Preexistant dermatological diseases, known allergy to test agents.
Inflammation inducing agents: Candidin is administered intradermally (see also D. Poffet, Comparaison entre le pouvoir vaso-constricteur d'un corticoide topique et l'inhibition de la dermite à la candidine après intradermorèaction (IDR). Thèse, Universitè de Genève, 1984). UV-B rays are administered by a UV-B lamp.
Inflammation is measured quantitatively. The area of the inflamed skin is measured in cm^2. The thickness of the skin is monitored by Ultrasound at 20 MHz. Erythema is measured by colorimetric determination employing a Minolta CR 20. […]
All determinations are recorded on a scale from 0 to 4: • 0=no reduction • 1=slight reduction (10 to 20%) • 2=moderate reduction (21 to 40%) • 3=marked reduction (41 to 70%) • 4=very marked reduction (71 to 100%) • Compared to vehicle control.

The subject of data set [2] is normal skin of mice. Put plainly: Effect on normal, non-inflamed skin of mice. It is filed as in vivo, C57BL/6 mice. Here is the method:
The effect of the RXR antagonist compound 15 on normal skin of mice is investigated. The ears of C57BL/6 mice are treated epicutaneously (topically) for 4 consecutive days with compound 15 in a concentration of 0.05% and 2.5% in acetone/ethanol (1:1, v/v). Comparison with vehicle control. Skin reactions, in particular inflammation, erythema, desquamation, and edema, are observed daily. Myeloperoxidase (MPO) activity is determined. The activity of MPO is considered the most sensitive criterium for the assessment of inflammation of the skin (see above, Examples 6 and 7).

Data set [3] relates to myeloperoxidase (MPO) activity. Put plainly: Semi chronic inflammation of mouse ears, MPO activity. Format: in vivo, C57BL/6 mice. The settings on record: 11 d. Here is the method:
(§1) […] mice of the C57BL/6 strain are used. Inflammation is induced on mouse ears with either AtRA, 9-cis RA or TPA by topical application. Inflammation is measured objectively by determination of the activity of myeloperoxidase (MPO) being directly correlated to the infiltration of polymorphonuclear white blood cells and by the determination of mRNA expression of c-jun, a protein implicated in the AP-1 transduction pathway according to known methods, see e.g. P. L. Stanley et al., Skin Pharmacol. 4, 262-271 (1991) (MPO assay), N. Basset-Sequin et al., J. Invest. Dermatol. 94, 418-422 (1990), F. J. Rauscher et al., Cell 52, 471-480 […], P. Sassone-Corn et al., Nature 326, 507-510 (1987), and M. Pfahl, Endocr. Rev. 14, 651-658, 1993, which are incorporated by reference regarding the experimental method.
In the “acute inflammation” test, mice are treated topically (epicutaneously), orally or intraperitoneally, daily for 4 days. In the “semi chronic inflammation” test, mice are treated topically according to the schedules given below. For each experiment, a group of at least 4 mice of both sexes are used in the defined condition, regarding placebo, vehicle control, compound, topical formulation, oral formulation, dosage and concentration. The topical vehicle consists of ethanol/PEG 400/water (3:1:1).
(§2) The anti-inflammatory effect of topical RXR antagonists is tested by determination of myeloperoxidase activity in % of vehicle controls. The effect of the RXR antagonist compound 15 is also compared with the well known anti-inflammatory effect of the two corticosteroids, clobetasol dipropionate and betamethasone propionate. For induction of inflammation, AtRA and TPA are applied topically to the skin and the administration of the test compounds, the RXR antagonist compound 15 and the two corticosteroids are given in the following order, according to the schedule, described in: Skin Pharmacol 1991; 4 (4): 262-271, Stanley P L. et.al.: RA or TPA is administered on days 0, 2, 4, 7 and 9, compound 15 or corticosteroids are administered twice daily on day 7, day 8 and day 9 and once on day 10 in the morning. The mice are sacrificed on day 10 in the afternoon.

The nature of data set [4]: Pharmacokinetics, daily oral gavage for 4 weeks in rats. It is filed as in vivo. The protocol: Daily administration of compound 15 by oral gavage for 4 weeks in rats: Compound 15 is administered daily by oral gavage as an oily suspension in doses of 50, 250, 500 and 750 mg/kg/day for 4 weeks in rats. Plasma samples are taken 2 hours post dosing on days 1, 22 and 26 and analysed by a gradient HPLC method with UV detection. […] With the 250 mg/kg/day dosage, plasma levels change from 4945 ng/ml on day 1 to 4190 ng/ml on day 22 and to 4530 ng/ml on day 26. Exposure of the rats to compound 15 results in a dose-proportional way in the doses between 50 and 250 mg/kg/day.

Data set [5] has as its system normal mice. As to the kind of experiment: 2-weeks toxicity study in normal mice, intraperitoneal. Particulars: daily i.p.
Data set [6] has as its system c-Jun mRNA expression. Put plainly: Semi chronic inflammation of mouse ears, c-Jun mRNA (northern blot). Format: in vivo, C57BL/6 mice. The settings on record: TPA 0.005% + test compound 0.05%. Here is the method:
as §1, §2
In the same experiment, the expression of c-Jun mRNA is determined by northern blot and expressed in percent of the vehicle controls.

Each structure is given as a SMILES string.

Turning to `CCCCOc1c(\C(C)=C/C=C/C(C)=C/C(=O)O)cc(C(C)(C)C)cc1C(C)(C)C` [Compound 15, (2E,4E,6Z)-7-[2-butoxy-3,5-bis(1,1-dimethylethyl)phenyl]-3-methyl-2,4,6-octatrienoic acid], in data set [1] (4 healthy volunteers, topical, candidin or UV-B induced), the “Reduction of the inflammatory reaction compared to vehicle control” value is listed as “very marked”. In addition, in data set [1] (topical lotion 1%), the “Anti-inflammatory effect compared with corticosteroids or macrolides” value is given as “even superior to that of corticosteroids or macrolides”. The “Clinical signs or symptoms of skin inflammation on normal skin” value in data set [2] (epicutaneous 0.05% and 2.5%, 4 consecutive days) was “does not induce clinical signs or symptoms of a skin inflammation”. For the same molecule, the “MPO activity compared to the vehicle control (in words)” value in data set [2] (normal skin, 0.05%) is “no significant change”. Besides, the “MPO activity, % of that of the vehicle control” value in data set [2] (normal skin, 2.5%) amounted to 57%. In addition, the results for the “MPO activity (% vehicle treated mice)” value in data set [3] (At RA 0.05% + test compound 0.05% topical) and in data set [3] (TPA 0.005% + test compound 0.05% topical) were 184 ± 72 % vehicle treated mice and 345 ± 81 % vehicle treated mice, respectively. Moreover, the “Plasma level 2 hours post dosing” value in data set [4] (50 mg/kg/day, day 1) was found to be 2205 ng/mL; in data set [4] (50 mg/kg/day, day 22) it was 2235 ng/mL; in data set [4] (50 mg/kg/day, day 26) it was 2505 ng/mL; in data set [4] (250 mg/kg/day, day 1), 4945 ng/mL; in data set [4] (250 mg/kg/day, day 22), 4190 ng/mL; in data set [4] (250 mg/kg/day, day 26), 4530 ng/mL. In data set [5], the “Signs or symptoms of hypervitaminosis A” value was “no signs or symptoms of hypervitaminosis A on skin, mucous membranes or bones with the exception of hair loss”. In addition, the “Tolerability, intraperitoneal” value in data set [5] (doses up to 400 mg/kg) is “well tolerated”. Moreover, the “c-Jun mRNA expression (% of vehicle treated mice)” value in data set [6] was 88 % of vehicle treated mice.
